Experimental data: PubChem BioAssay (NCI)
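Exposure lasted 48 hours, with cells grown in 96-well plates and compounds tested at five concentrations. The concentration for full growth arrest is given as TGI.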

Assays:
Experiment in all cases: inhibition of tumour cell growth, NCI panel, 48 h
[1] = test system: A549 NSCLC
[2] = test system: NCI-H23 lung
[3] = test system: CCRF-CEM leukemia
[4] = test system: HS 578T breast
[5] = test system: OVCAR-8 ovarian
[6] = test system: SK-MEL-28 melanoma
[7] = test system: MDA-N
[8] = test system: SW-620 colon
[9] = test system: SNB-75 CNS
[10] = test system: KM12 colon
[11] = test system: SK-OV-3 ovarian
[12] = test system: UO-31 renal
[13] = test system: HCT-15 colon
[14] = test system: MOLT-4 leukemia
[15] = test system: SF-295 CNS
[16] = test system: IGROV1 ovarian
[17] = test system: LOX IMVI melanoma
[18] = test system: SK-MEL-2 melanoma
[19] = test system: MDA-MB-231 breast
[20] = test system: K-562 leukemia
[21] = test system: DU-145 prostate
[22] = test system: HCT-116 colon
[23] = test system: T-47D breast
[24] = test system: HT29 colon
[25] = test system: HOP-62 NSCLC
[26] = test system: HL-60(TB) leukemia
[27] = test system: SF-268 CNS
[28] = test system: BT-549 breast
[29] = test system: MDA-MB-435
[30] = test system: MCF7 breast
[31] = test system: NCI-H460 lung
[32] = test system: OVCAR-3 ovarian
[33] = test system: SF-539 CNS
[34] = test system: RPMI-8226 leukemia
[35] = test system: TK-10 renal
[36] = test system: HOP-92 NSCLC
[37] = test system: COLO 205 colon
[38] = test system: CAKI-1 renal
[39] = test system: NCI-H226 lung
[40] = test system: NCI/ADR-RES ovarian
[41] = test system: SN12C renal
[42] = test system: A498 renal
[43] = test system: UACC-257 melanoma
[44] = test system: OVCAR-5 ovarian
[45] = test system: SR leukemia
[46] = test system: M14 melanoma
[47] = test system: UACC-62 melanoma
[48] = test system: SK-MEL-5 melanoma
[49] = test system: SNB-19 CNS
[50] = test system: 786-0 renal
[51] = test system: PC-3 prostate
[52] = test system: ACHN renal
[53] = test system: U251 CNS
[54] = test system: EKVX NSCLC
[55] = test system: MALME-3M melanoma
[56] = test system: HCC-2998 colon
[57] = test system: OVCAR-4 ovarian
[58] = test system: NCI-H522 lung
[59] = test system: RXF 393 renal

For `CC(=O)C1COC(O)C1C` (stereo unspecified), the TGI [1] was > 100 µM, the TGI [2] was 31.7 µM and the TGI [3] was > 100 µM. The TGI [4] was 68.8 µM, the TGI [5] was 46 µM and the TGI [6] was 38.6 µM. The TGI [7] was 43.5 µM, the TGI [8] was 44.2 µM and the TGI [9] was 70.4 µM. The TGI [10] was 28 µM, the TGI [11] was 82.3 µM and the TGI [12] was 34.9 µM. For the same molecule, the TGI [13] was 44.4 µM, the TGI [14] was 99.2 µM and the TGI [15] was 71.9 µM. For the same molecule, the TGI [16] was 42.5 µM, the TGI [17] was 39.4 µM and the TGI [18] was 29.1 µM. The TGI [19] was 68 µM, the TGI [20] was > 100 µM and the TGI [21] was 70.8 µM. The TGI [22] was 39.6 µM, the TGI [23] was > 100 µM and the TGI [24] was > 100 µM. It also gave a TGI [25] of 33 µM, a TGI [26] of 39.7 µM and a TGI [27] of 49.9 µM. For the same molecule, the TGI [28] was > 100 µM, the TGI [29] was 30.2 µM and the TGI [30] was 67.3 µM. It also gave a TGI [31] of 44.5 µM, a TGI [32] of 37 µM and a TGI [33] of 45.4 µM. For the same molecule, the TGI [34] was 60 µM, the TGI [35] was > 100 µM and the TGI [36] was 78.7 µM. The TGI [37] was 34.5 µM, the TGI [38] was 62.9 µM and the TGI [39] was 43.4 µM. For the same molecule, the TGI [40] was 48.6 µM, the TGI [41] was 50.6 µM and the TGI [42] was > 100 µM. For the same molecule, the TGI [43] was > 100 µM, the TGI [44] was 59.2 µM and the TGI [45] was 40.1 µM. The TGI [46] was 61.1 µM, the TGI [47] was 27.2 µM and the TGI [48] was 29.7 µM. The TGI [49] was > 100 µM, the TGI [50] was 49.8 µM and the TGI [51] was 55.5 µM. For the same molecule, the TGI [52] was 80.9 µM, the TGI [53] was 58.2 µM and the TGI [54] was > 100 µM.

For `O=S(=O)(O)c1cc(Nc2ccnc3ccccc23)c2c(S(=O)(=O)O)cc(S(=O)(=O)O)cc2c1`, the TGI [55] was > 100 µM, the TGI [1] was > 100 µM and the TGI [2] was > 100 µM. For the same molecule, the TGI [3] was > 100 µM, the TGI [4] was > 100 µM and the TGI [5] was > 100 µM. For the same molecule, the TGI [6] was > 100 µM, the TGI [7] was > 100 µM and the TGI [8] was > 100 µM. For the same molecule, the TGI [9] was > 100 µM, the TGI [10] was > 100 µM and the TGI [11] was > 100 µM. The TGI [12] was > 100 µM, the TGI [13] was > 100 µM and the TGI [14] was > 100 µM. The TGI [16] was > 100 µM, the TGI [17] was > 100 µM and the TGI [18] was > 100 µM. For the same molecule, the TGI [19] was > 100 µM, the TGI [56] was > 100 µM and the TGI [21] was > 100 µM. For the same molecule, the TGI [22] was > 100 µM, the TGI [23] was > 100 µM and the TGI [24] was > 100 µM. For the same molecule, the TGI [25] was > 100 µM, the TGI [27] was > 100 µM and the TGI [28] was > 100 µM. The TGI [29] was > 100 µM, the TGI [30] was > 100 µM and the TGI [31] was > 100 µM. The TGI [32] was > 100 µM, the TGI [33] was > 100 µM and the TGI [57] was > 100 µM. For the same molecule, the TGI [58] was > 100 µM, the TGI [34] was > 100 µM and the TGI [35] was > 100 µM. The TGI [59] was > 100 µM, the TGI [37] was > 100 µM and the TGI [38] was > 100 µM. The TGI [39] was > 100 µM, the TGI [40] was > 100 µM and the TGI [41] was > 100 µM. The TGI [42] was > 100 µM, the TGI [43] was > 100 µM and the TGI [44] was > 100 µM. The TGI [46] was > 100 µM, the TGI [47] was > 100 µM and the TGI [48] was > 100 µM. For the same molecule, the TGI [50] was > 100 µM, the TGI [51] was > 100 µM and the TGI [53] was > 100 µM. The TGI [54] was > 100 µM.
